Read-outs that look alike come from different tables or passages of the source.
Key:
human MCH-1 receptor = human MCH-1 receptor (Homo sapiens (Human), UniProt Q99705); assay: Binding Assay for Human Melanin-Concentrating Hormone (MCH-1) Receptor (radioligand displacement, CHO-K1 membranes); details: membranes from CHO-K1 cells expressing human MCH1 receptor, [3H]-labeled radioligand, Ki from IC50 by Cheng Prusoff
Method: Evaluation of the affinity of compounds for the human MCH-1 receptor was accomplished using 4-(3,4,5-tritritiumbenzyloxy)-1-(1-(2-(pyrrolidin-1-yl)ethyl)-1H-indazol-5-yl)pyridin-2(1H)-one and membranes prepared from stable CHO-K1 cells expressing the human MCH1 receptor obtained from Euroscreen (Batch 1138). Cell membrane homogenates (8.92 μg protein) were incubated for 60 min at 25° C. with […] of the [^3H]-labeled compound in the absence or presence of the test compound in 50 mM Tris-HCl buffer, pH 7.4. Nonspecific binding was determined in the presence of 50 μM 1-(5-(4-cyanophenyl)bicyclo[3.1.0]hexan-2-yl)-3-(4-fluoro-3-(trifluoromethyl)phenyl)-1-(3-(4-methylpiperazin-1-yl)propyl)urea. Following incubation, the samples were filtered rapidly under vacuum through Skatron 11731 filters, pre-soaked in 0.5% polyethylenimine, and washed with ice-cold 50 mM Tris-HCl buffer, pH 7.4, (wash setting 9,9,0) using a Skatron cell harvester. The filters were counted for radioactivity in a liquid scintillation counter (Tri-Carb 2100TR, Packard) using a scintillation cocktail (Ultima Gold MV, Perkin Elmer).
The results are expressed as a percent inhibition of the control radioligand specific binding. The IC50 value (concentration causing a half-maximal inhibition of control specific binding) and Hill coefficient (nH) were determined by non-linear regression analysis of the competition curve using Hill equation curve fitting. The inhibition constant (Ki) was calculated from the Cheng Prusoff equation: (Ki=IC50/(1+(L/KD)), where L=concentration of radioligand in the assay, and KD=affinity of the radioligand for the receptor.

human MCH-1 receptor, sequence (Q99705 whole entry): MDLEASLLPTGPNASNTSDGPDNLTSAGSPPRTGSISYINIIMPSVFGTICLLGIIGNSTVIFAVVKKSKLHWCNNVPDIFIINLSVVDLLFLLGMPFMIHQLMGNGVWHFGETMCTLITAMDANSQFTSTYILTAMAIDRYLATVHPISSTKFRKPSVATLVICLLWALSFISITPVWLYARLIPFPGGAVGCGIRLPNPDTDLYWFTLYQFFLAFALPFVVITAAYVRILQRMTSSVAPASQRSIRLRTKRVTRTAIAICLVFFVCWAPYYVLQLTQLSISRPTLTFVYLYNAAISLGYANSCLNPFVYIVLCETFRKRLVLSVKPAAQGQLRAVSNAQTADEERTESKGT

Row | SMILES | Ki (human MCH-1 receptor; read-out: MCH-1 Ki) [nM] | melting point | Ki (human MCH-1 receptor; MCH-1 Ki (nM)) [nM]
1 | Cl.Cn1c2c(c3ccc(-n4ccc(-c5ccc(C(F)(F)F)nc5)cc4=O)cc31)C1CCCC(C2)N1 (centres unmarked) [Example 13, 1-(5-Methyl-6,7,8,9,10,11-hexahydro-7,11-imino-5H-cyclooct[b]indol-3-yl)-4-(6-(trifluoromethyl)pyridin-3-yl)pyridin-2(1H)-one hydrochloride] | 46.3 | 265 to 274 °C (dec.) | –
2 | Cl.Cn1c2c(c3ccc(-n4ccc(OCc5ccc(C(F)(F)F)nc5)cc4=O)cc31)C1CCCC(C2)N1 (centres unmarked) [Example 19, 1-(5-Methyl-6,7,8,9,10,11-hexahydro-7,11-imino-5H-cyclooct[b]indol-3-yl)-4-((6-(trifluoromethyl)pyridin-3-yl)methoxy)pyridin-2 (1H)-one hydrochloride] | 13 | 240 to 250 °C | –
3 | Cl.O=c1cc(OCc2ccccc2)ccn1-c1ccc2c3c([nH]c2c1)CC1CCC3N1 (single isomer, unassigned; enantiomer b) [Example 20, (−)-4-(Benzyloxy)-1-(5,6,7,8,9,10-hexahydro-7,10-iminocyclohept[b]indol-3-yl)pyridin-2(1H)-one hydrochloride (Enantiomer B)] | – | 211 to 217 °C | 9.3
4 | CC(=O)N1C2CCC1c1c(n(C)c3cc(-n4ccc(OCc5ccccc5)cc4=O)ccc13)C2 (centres unmarked) [Example 27, 1-(11-Acetyl-5-methyl-5,6,7,8,9,10-hexahydro-7,10-iminocyclohept[b]indol-3-yl)-4-(benzyloxy)pyridin-2(1H)-one] | 131 | 91 to 96 °C | –
